From patent publication US9718828B2 (MERCK SHARP & DOHME CORP., priority 2011, dated 2017)

Molecular target: hBTK (full-length BTK, 6HIS-tag cleaved) (Homo sapiens (Human), UniProt Q06187)
Test: BTK enzymatic activity, LANCE TR-FRET assay (Assay Method C)
Assay type: biochemical
Settings: LANCE TR-FRET, 50 pM hBTK, 25 μM ATP; class 100-1000 is given as ≧100 nM-<1 μM; read-out: IC50 Btk activity values - Assay Method C

Sequence of hBTK (full-length BTK, 6HIS-tag cleaved) (Q06187 whole entry): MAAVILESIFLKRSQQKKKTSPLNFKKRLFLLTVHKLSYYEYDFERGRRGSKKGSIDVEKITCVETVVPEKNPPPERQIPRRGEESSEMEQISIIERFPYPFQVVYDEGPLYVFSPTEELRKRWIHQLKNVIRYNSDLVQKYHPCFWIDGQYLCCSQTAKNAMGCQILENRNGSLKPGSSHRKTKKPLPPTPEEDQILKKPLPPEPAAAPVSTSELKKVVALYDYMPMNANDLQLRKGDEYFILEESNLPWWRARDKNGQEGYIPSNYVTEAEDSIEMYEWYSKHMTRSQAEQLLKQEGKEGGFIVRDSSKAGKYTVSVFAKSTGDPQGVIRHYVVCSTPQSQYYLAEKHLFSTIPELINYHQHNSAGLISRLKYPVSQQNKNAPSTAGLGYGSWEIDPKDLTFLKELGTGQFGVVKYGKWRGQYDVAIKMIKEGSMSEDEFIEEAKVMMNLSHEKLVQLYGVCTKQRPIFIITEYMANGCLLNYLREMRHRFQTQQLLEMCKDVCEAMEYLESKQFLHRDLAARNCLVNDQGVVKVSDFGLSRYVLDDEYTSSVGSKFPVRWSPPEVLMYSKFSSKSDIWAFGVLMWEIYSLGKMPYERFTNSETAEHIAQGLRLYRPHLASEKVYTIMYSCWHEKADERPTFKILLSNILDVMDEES

Compound | IC50 [nM]
Cc1cnc(N)c2c(-c3ccc(C(=O)Nc4cc(OC5CC5)ccn4)cc3)nc([C@@H]3CCCN(C(=O)C4(C)COC4)C3)n12 [Example 456, 4-(8-amino-5-methyl-3-{(3R)-1-[(3-methyloxetan-3-yl)carbonyl]piperidin-3-yl}imidazo[1,5-a]pyrazin-1-yl)-N-[4-(cyclopropyloxy)pyridin-2-yl]benzamide] | < 10
Cc1cnc(N)c2c(-c3ccc(C(=O)Nc4cc(OC5CC5)ccn4)cc3)nc([C@@H]3CCCN(C(=O)C4CC4)C3)n12 [Example 457, 4-{8-amino-3-[(3R)-1-(cyclopropylcarbonyl)piperidin-3-yl]-5-methylimidazo[1,5-a]pyrazin-1-yl}-N-[4-(cyclopropyloxy)pyridin-2-yl]benzamide] | < 10
Cc1cnc(N)c2c(-c3ccc(C(=O)Nc4cc(C(F)F)ccn4)cc3)nc([C@@H]3CCCN(C(=O)C4(C)COC4)C3)n12 [Example 458, 4-(8-amino-5-methyl-3-{(3R)-1-[(3-methyloxetan-3-yl)carbonyl]piperidin-3-yl}imidazo[1,5-a]pyrazin-1-yl)-N-[4-(difluoromethyl)pyridin-2-yl]benzamide] | < 10
COc1ccnc(NC(=O)c2ccc(-c3nc([C@@H]4CCCN(C(=O)C5(C)COC5)C4)n4c(C)cnc(N)c34)cc2)c1 [Example 459, 4-(8-amino-5-methyl-3-{(3R)-1-[(3-methyloxetan-3-yl)carbonyl]piperidin-3-yl}imidazo[1,5-a]pyrazin-1-yl)-N-(4-methoxypyridin-2-yl)benzamide] | < 10
COc1ccnc(NC(=O)c2ccc(-c3nc([C@@H]4CCCN(C(C)=O)C4)n4c(C)cnc(N)c34)cc2)c1 [Example 460, 4-{3-[(3R)-1-acetylpiperidin-3-yl]-8-amino-5-methylimidazo[1,5-a]pyrazin-1-yl}-N-(4-methoxypyridin-2-yl)benzamide] | < 10
CC(=O)N1C[C@H](c2nc(-c3ccc(C(=O)Nc4cc(C(F)F)ccn4)cc3F)c3c(N)ncc(C)n23)CC[C@@H]1C [Example 461, 4-{3-[(3R,6S)-1-acetyl-6-methylpiperidin-3-yl]-8-amino-5-methylimidazo[1,5-a]pyrazin-1-yl}-N-[4-(difluoromethyl)pyridin-2-yl]-3-fluorobenzamide] | < 10
Cc1cnc(N)c2c(-c3ccc(C(=O)Nc4cc(C(F)F)ccn4)cc3F)nc([C@@H]3CC[C@H](C)N(C(=O)C4(C)COC4)C3)n12 [Example 462, 4-(8-amino-5-methyl-3-{(3R,6S)-6-methyl-1-[(3-methyloxetan-3-yl)carbonyl]piperidin-3-yl}imidazo[1,5-a]pyrazin-1-yl)-N-[4-(difluoromethyl)pyridin-2-yl]-3-fluorobenzamide] | < 10
CC1(C(=O)N2CCC[C@@H](c3nc(-c4ccc(C(=O)Nc5cc(C(F)(F)F)ccn5)cc4)c4c(N)ncc(C=O)n34)C2)COC1 [Example 464, 4-(8-amino-5-formyl-3-{(3R)-1-[(3-methyloxetan-3-yl)carbonyl]piperidin-3-yl}imidazo[1,5-a]pyrazin-1-yl)-N-[4-(trifluoromethyl)pyridin-2-yl]benzamide] | 10 to 100
C[C@@H](O)c1cnc(N)c2c(-c3ccc(C(=O)Nc4cc(C(F)(F)F)ccn4)cc3)nc([C@@H]3CCCN(C(=O)C4(C)COC4)C3)n12 [Example 465, 4-(8-amino-5-[(1R)-1-hydroxyethyl]-3-{(3R)-1-[(3-methyloxetan-3-yl)carbonyl]piperidin-3-yl}imidazo[1,5-a]pyrazin-1-yl)-N-[4-(trifluoromethyl)pyridin-2-yl]benzamide] | < 10
C[C@H](O)c1cnc(N)c2c(-c3ccc(C(=O)Nc4cc(C(F)(F)F)ccn4)cc3)nc([C@@H]3CCCN(C(=O)C4(C)COC4)C3)n12 [Example 466, 4-(8-amino-5-[(1S)-1-hydroxyethyl]-3-{(3R)-1-[(3-methyloxetan-3-yl)carbonyl]piperidin-3-yl}imidazo[1,5-a]pyrazin-1-yl)-N-[4-(trifluoromethyl)pyridin-2-yl]benzamide] | < 10
CO[C@H](C)c1cnc(N)c2c(-c3ccc(C(=O)Nc4cc(C(F)(F)F)ccn4)cc3)nc([C@@H]3CCCN(C(=O)C4(C)COC4)C3)n12 [Example 467, 4-(8-amino-5-[(1R)-1-methoxyethyl]-3-{(3R)-1-[(3-methyloxetan-3-yl)carbonyl]piperidin-3-yl}imidazo[1,5-a]pyrazin-1-yl)-N-[4-(trifluoromethyl)pyridin-2-yl]benzamide] | < 10
CO[C@@H](C)c1cnc(N)c2c(-c3ccc(C(=O)Nc4cc(C(F)(F)F)ccn4)cc3)nc([C@@H]3CCCN(C(=O)C4(C)COC4)C3)n12 [Example 468, 4-(8-amino-5-[(1S)-1-methoxyethyl]-3-{(3R)-1-[(3-methyloxetan-3-yl)carbonyl]piperidin-3-yl}imidazo[1,5-a]pyrazin-1-yl)-N-[4-(trifluoromethyl)pyridin-2-yl]benzamide] | < 10
CC1(C(=O)N2CCC[C@@H](c3nc(-c4ccc(C(=O)Nc5cc(C(F)(F)F)ccn5)cc4)c4c(N)ncc(C5(O)COC5)n34)C2)COC1 [Example 469, 4-[8-amino-5-(3-hydroxyoxetan-3-yl)-3-{(3R)-1-[(3-methyloxetan-3-yl)carbonyl]piperidin-3-yl}imidazo[1,5-a]pyrazin-1-yl]-N-[4-(trifluoromethyl)pyridin-2-yl]benzamide] | 10 to 100
CC1(C(=O)N2CCC[C@@H](c3nc(-c4ccc(C(=O)Nc5cc(C(F)(F)F)ccn5)cc4)c4c(N)ncc(C(F)(F)F)n34)C2)COC1 [Example 470, 4-[8-amino-3-{(3R)-1-[(3-methyloxetan-3-yl)carbonyl]piperidin-3-yl}-5-(trifluoromethyl)imidazo[1,5-a]pyrazin-1-yl]-N-[4-(trifluoromethyl)pyridin-2-yl]benzamide] | < 10
CC1(C(=O)N2CCC[C@@H](c3nc(-c4ccc(C(=O)Nc5cc(C(F)(F)F)ccn5)cc4)c4c(N)ncc(CO)n34)C2)COC1 [Example 471, 4-[8-amino-5-(hydroxymethyl)-3-{(3R)-1-[(3-methyloxetan-3-yl)carbonyl]piperidin-3-yl}imidazo[1,5-a]pyrazin-1-yl]-N-[4-(trifluoromethyl)pyridin-2-yl]benzamide] | < 10
C[C@H]1CC[C@@H](c2nc(-c3ccc(C(=O)Nc4cc(C(F)(F)F)ccn4)c(F)c3)c3c(N)nccn23)CN1C(=O)C1(C)COC1 [Example 476, 4-(8-amino-3-{(3R,6S)-6-methyl-1-[(3-methyloxetan-3-yl)carbonyl]piperidin-3-yl}imidazo[1,5-a]pyrazin-1-yl)-2-fluoro-N-[4-(trifluoromethyl)pyridin-2-yl]benzamide] | < 10
CC1(C(=O)N2CCC[C@@H](c3nc(-c4ccc(C(=O)Nc5cc(OC(F)F)ccn5)cc4F)c4c(N)nccn34)C2)COC1 [Example 478, 4-(8-amino-3-{(3R)-1-[(3-methyloxetan-3-yl)carbonyl]piperidin-3-yl}imidazo[1,5-a]pyrazin-1-yl)-N-[4-(difluoromethoxy)pyridin-2-yl]-3-fluorobenzamide] | < 10
CCCOc1ccnc(NC(=O)c2ccc(-c3nc([C@@H]4CCCN(C(=O)C5(C)COC5)C4)n4ccnc(N)c34)c(F)c2)c1 [Example 481, 4-(8-amino-3-{(3R)-1-[(3-methyloxetan-3-yl)carbonyl]piperidin-3-yl}imidazo[1,5-a]pyrazin-1-yl)-3-fluoro-N-(4-propoxypyridin-2-yl)benzamide] | < 10
CC1(C(=O)N2CCC[C@@H](c3nc(-c4ccc(C(=O)Nc5cc(C(C)(F)F)ccn5)cc4F)c4c(N)nccn34)C2)COC1 [Example 484, 4-(8-amino-3-{(3R)-1-[(3-methyloxetan-3-yl)carbonyl]piperidin-3-yl}imidazo[1,5-a]pyrazin-1-yl)-N-[4-(1,1-difluoroethyl)pyridin-2-yl]-3-fluorobenzamide] | < 10
CCC(=O)N1CCC[C@@H](c2nc(-c3ccc(C(=O)Nc4cc(C(F)(F)F)ccn4)cc3F)c3c(N)nccn23)C1 [Example 487, 4-{8-amino-3-[(3R)-1-propanoylpiperidin-3-yl]imidazo[1,5-a]pyrazin-1-yl}-3-fluoro-N-[4-(trifluoromethyl)pyridin-2-yl]benzamide] | < 10
CCC(=O)N1CCC[C@@H](c2nc(-c3ccc(C(=O)Nc4cc(C(F)F)ccn4)cc3F)c3c(N)nccn23)C1 [Example 488, 4-{8-amino-3-[(3R)-1-propanoylpiperidin-3-yl]imidazo[1,5-a]pyrazin-1-yl}-N-[4-(difluoromethyl)pyridin-2-yl]-3-fluorobenzamide] | < 10
Nc1nccn2c([C@@H]3CCCN(C(=O)NC4CC4)C3)nc(-c3ccc(C(=O)Nc4cc(C(F)(F)F)ccn4)cc3F)c12 [Example 489, (3R)-3-[8-amino-1-(2-fluoro-4-{[4-(trifluoromethyl)pyridin-2-yl]carbamoyl}phenyl)imidazo[1,5-a]pyrazin-3-yl]-N-cyclopropylpiperidine-1-carboxamide] | < 10
CCC(=O)N1CCC[C@@H](c2nc(-c3ccc(C(=O)Nc4cc(C(F)(F)F)ccn4)cc3OC)c3c(N)nccn23)C1 [Example 490, 4-{8-amino-3-[(3R)-1-propanoylpiperidin-3-yl]imidazo[1,5-a]pyrazin-1-yl}-3-methoxy-N-[4-(trifluoromethyl)pyridin-2-yl]benzamide] | < 10
COCCN1CCO[C@@H](c2nc(-c3ccc(C(=O)Nc4cc(C(F)(F)F)ccn4)cc3)c3c(N)nccn23)C1 [Example 491, (R)-4-(8-amino-3-(4-(2-methoxyethyl)morpholin-2-yl)imidazo[1,5-a]pyrazin-1-yl)-N-(4-(trifluoromethyl)pyridin-2-yl)benzamide] | < 10
Nc1nccn2c([C@H]3CN(CCO)CCO3)nc(-c3ccc(C(=O)Nc4cc(C(F)(F)F)ccn4)cc3)c12 [Example 492, (R)-4-(8-amino-3-(4-(2-hydroxyethyl)morpholin-2-yl)imidazo[1,5-a]pyrazin-1-yl)-N-(4-(trifluoromethyl)pyridin-2-yl)benzamide] | < 10

Same assay, conditions: Table D; Assay Method C (LANCE TR-FRET), 50 pM hBTK, 25 μM ATP; read-out: IC50 BTK activity value

Compound | IC50 [nM]
Cc1cnc(N)c2c(-c3ccc(C(=O)Nc4cc(OC5CC5)ccn4)cc3)nc([C@@H]3CCCN(C(=O)C4(C)COC4)C3)n12 [Example 456, 4-(8-amino-5-methyl-3-{(3R)-1-[(3-methyloxetan-3-yl)carbonyl]piperidin-3-yl}imidazo[1,5-a]pyrazin-1-yl)-N-[4-(cyclopropyloxy)pyridin-2-yl]benzamide] | 0.403
C[C@H]1CC[C@@H](c2nc(-c3ccc(C(=O)Nc4cc(C(F)(F)F)ccn4)c(F)c3)c3c(N)nccn23)CN1C(=O)C1(C)COC1 [Example 476, 4-(8-amino-3-{(3R,6S)-6-methyl-1-[(3-methyloxetan-3-yl)carbonyl]piperidin-3-yl}imidazo[1,5-a]pyrazin-1-yl)-2-fluoro-N-[4-(trifluoromethyl)pyridin-2-yl]benzamide] | 0.322
